Results taken from paper PMC7565698, “Catabolic Reductive Dehalogenase Substrate Complex Structures Underpin Rational Repurposing of Substrate Scope” (Microorganisms, 2020).

What was measured:
[1] = biological target: T1, NpRdhA (Nitratireductor pacificus, UniProt K2MB66); experiment: X-ray crystal structure, soaked crystals ([…] Å); type: binding; conditions: N-terminal His tag, 100 mM soak
T1 construct: gene NA2_14372; full-length, N-terminal His6 tag (NpRdhA^N; crystals) or C-terminal His6 tag (NpRdhA^C; A419M); expressed in Bacillus megaterium; holds cobalamin and two [4Fe-4S] clusters
T1 sequence (K2MB66 entry or part of it): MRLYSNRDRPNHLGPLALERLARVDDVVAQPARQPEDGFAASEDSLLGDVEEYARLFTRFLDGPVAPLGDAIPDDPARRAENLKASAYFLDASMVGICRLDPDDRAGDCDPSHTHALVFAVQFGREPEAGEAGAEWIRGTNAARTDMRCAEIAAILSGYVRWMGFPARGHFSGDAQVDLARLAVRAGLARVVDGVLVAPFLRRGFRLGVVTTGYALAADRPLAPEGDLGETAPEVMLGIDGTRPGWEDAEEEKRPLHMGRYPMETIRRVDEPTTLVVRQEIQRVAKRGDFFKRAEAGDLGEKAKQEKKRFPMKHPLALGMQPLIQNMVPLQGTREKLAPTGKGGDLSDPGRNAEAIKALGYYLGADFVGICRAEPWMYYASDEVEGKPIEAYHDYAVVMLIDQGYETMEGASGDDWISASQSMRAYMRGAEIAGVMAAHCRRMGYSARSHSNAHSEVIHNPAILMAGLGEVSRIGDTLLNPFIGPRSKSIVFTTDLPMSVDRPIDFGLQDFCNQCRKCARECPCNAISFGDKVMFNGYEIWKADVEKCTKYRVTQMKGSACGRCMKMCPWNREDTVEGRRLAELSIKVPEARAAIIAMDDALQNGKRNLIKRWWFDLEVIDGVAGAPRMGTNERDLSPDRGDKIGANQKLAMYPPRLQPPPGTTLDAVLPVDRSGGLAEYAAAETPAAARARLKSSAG

[2] = biological target: T2, NpRdhA (Nitratireductor pacificus, UniProt K2MB66, A419M); experiment: HPLC of dehalogenation products; type: biochemical; conditions: NADPH, spinach ferredoxin, E. coli flavodoxin reductase, 30 °C, anaerobic; C-terminal His tag
T2 construct: gene NA2_14372; full-length, N-terminal His6 tag (NpRdhA^N; crystals) or C-terminal His6 tag (NpRdhA^C; A419M); expressed in Bacillus megaterium; holds cobalamin and two [4Fe-4S] clusters
T2 sequence (K2MB66 entry or part of it A419M): as the sequence (K2MB66 entry or part of it) above, with A419M counted along it

[3] = biological target: T1, NpRdhA; experiment: X-band continuous wave EPR of cob(II)alamin; type: binding; conditions: 20 mM ligand, 100 uM protein, 30 K

| SMILES | X-ray crystal structure, soaked crystals (1.99 Å) ([1]; three conformations, one with Br ligating Co, one at the active site entrance) | HPLC of dehalogenation products [2] | X-ray crystal structure, soaked crystals (1.99 Å) ([1]; active site above cobalamin, Br at Co beta-axial position, partial photoreduction to 3-bromo-4-hydroxybenzoic acid) | X-band continuous wave EPR of cob(II)alamin [3] |
| --- | --- | --- | --- | --- |
| O=C(O)c1ccc(O)c(Br)c1 [3-B-4-OH, 3-bromo-4-hydroxybenzoic acid] | structure of the NpRdhA^N protein in complex with 3-B-4-OH obtained through soaking | revealed the ability to dehalogenate 35-DB-4-OH, 3-B-4-OH, 35-DC-4-OH and 3-C-4-OH |  |  |
| O=C(O)c1cc(Br)c(O)c(Br)c1 [35-DB-4-OH, 3,5-dibromo-4-hydroxybenzoic acid] |  | revealed the ability to dehalogenate 35-DB-4-OH, 3-B-4-OH, 35-DC-4-OH and 3-C-4-OH | 35-DB-4-OH is located above the cobalamin |  |
| O=C(O)c1cc(Cl)c(O)c(Cl)c1 [35-DC-4-OH, 3,5-dichloro-4-hydroxybenzoic acid] |  |  |  | a distinct change in both g and hyperfine coupling values on substrate binding |
